Source: a compilation of properties of binary mixtures

Experiment: xn = mol fraction of the nth substance listed

`CCCC[P+](CCCC)(CCCC)CCCC.F[B-](F)(F)F` + C1COCO1 gave a speed of sound (298.15 K, 100 kPa, x1 = 0.002) of 1341.9 m/s, a speed of sound (298.15 K, 100 kPa, x1 = 0.0052) of 1400.4 m/s and a speed of sound (298.15 K, 100 kPa, x1 = 0.0073) of 1474.1 m/s.

Compound `CCCO` + C=CC[n+]1ccn(C)c1.O=S(=O)([N-]S(=O)(=O)C(F)(F)F)C(F)(F)F has a viscosity (298.15 K, 100 kPa, x2 = 0) of 1.91 mPa·s.

Compound `CC[n+]1ccn(C)c1.[Cl-]` + CC#N has a viscosity (373 K, 100 kPa, x2 = 0) of 36 mPa·s, a viscosity (373 K, 100 kPa, x2 = 0.158) of 19 mPa·s and a viscosity (373 K, 100 kPa, x2 = 0.472) of 7 mPa·s. For the same compound, the viscosity (373 K, 100 kPa, x2 = 0.781) was 3 mPa·s.

Compound `CCCC[n+]1ccn(C)c1.F[P-](F)(F)(F)(F)F` + CC(C)=O has an electrical conductivity (296.15 K, 101 kPa, x2 = 0.3522) of 0.84 S/m, an electrical conductivity (296.15 K, 101 kPa, x2 = 0.8801) of 3.91 S/m and an electrical conductivity (296.15 K, 101 kPa, x2 = 0.9514) of 2.99 S/m. It also gave an electrical conductivity (296.15 K, 101 kPa, x2 = 0.9778) of 1.73 S/m.

Compound `CCCCCCCC[N+](C)(CCCCCCCC)CCCCCCCC.[Cl-]` + CCC(=O)O has a viscosity (298 K, 100 kPa, x1 = 0.5) of 650 mPa·s.

For `CCCC[P+](CCCC)(CCCC)CCCC.[Cl-]` + CCC(=O)O, the viscosity (298 K, 100 kPa, x1 = 0.5) was 140 mPa·s.

`CCCCCCC[N+](CCCCCCC)(CCCCCCC)CCCCCCC.[Br-]` + CCCCCCCCCC(=O)O showed a viscosity (318.15 K, 100 kPa, x1 = 0.333) of 205 mPa·s.

Compound `CCCCC[N+](CCCCC)(CCCCC)CCCCC.[Br-]` + CCCCCCCCCC(=O)O has a viscosity (318.15 K, 100 kPa, x1 = 0.333) of 178 mPa·s.

`CCCCCCCCn1cc[n+](C)c1C.F[P-](F)(F)(F)(F)F` + CCCCCCCC[n+]1ccn(C)c1.F[P-](F)(F)(F)(F)F showed a viscosity (303.15 K, 100 kPa, x2 = 0.5) of 440 mPa·s, a viscosity (313.15 K, 100 kPa, x2 = 0.5) of 241 mPa·s and a viscosity (323.15 K, 100 kPa, x2 = 0.5) of 144 mPa·s.

`CCCCCCCC[n+]1ccn(C)c1C.F[B-](F)(F)F` + CCCCCCCC[n+]1ccn(C)c1.F[P-](F)(F)(F)(F)F showed a viscosity (303.15 K, 100 kPa, x2 = 0.5) of 196 mPa·s, a viscosity (313.15 K, 100 kPa, x2 = 0.5) of 116 mPa·s and a viscosity (323.15 K, 100 kPa, x2 = 0.5) of 73.6 mPa·s. For the same compound, the viscosity (333.15 K, 100 kPa, x2 = 0.5) was 50.6 mPa·s, the viscosity (343.15 K, 100 kPa, x2 = 0.5) was 36.8 mPa·s and the viscosity (353.15 K, 100 kPa, x2 = 0.5) was 29.1 mPa·s.

In the case of `c1ccccc1` + CCCCCCCCn1cc[n+](C)c1.O=S(=O)([N-]S(=O)(=O)C(F)(F)F)C(F)(F)F, the viscosity (293 K, 101 kPa, x2 = 0) is reported as 0.641 mPa·s.

`O=C([O-])C(F)(F)F.[Na+]` + CCCCNC(N)=O gave a viscosity (302.2 K, 101.3 kPa, x2 = 0.6576) of 324 mPa·s, a viscosity (305.5 K, 101.3 kPa, x2 = 0.6576) of 196 mPa·s and a viscosity (310.4 K, 101.3 kPa, x2 = 0.6576) of 96 mPa·s. It also gave a viscosity (311.4 K, 101.3 kPa, x2 = 0.6576) of 85 mPa·s, a viscosity (314.3 K, 101.3 kPa, x2 = 0.6576) of 54 mPa·s and a viscosity (317.5 K, 101.3 kPa, x2 = 0.6576) of 37 mPa·s. For the same compound, the viscosity (322.4 K, 101.3 kPa, x2 = 0.6576) was 21 mPa·s.

In the case of `CCCCCC(=O)O` + CCCC[N+](CCCC)(CCCC)CCCC.[Cl-], the viscosity (298 K, 100 kPa, x2 = 0.5) is reported as 320 mPa·s.

With `CCCCCCCCCC(=O)O` + CCCC[N+](CCCC)(CCCC)CCCC.[Cl-] the viscosity (298.15 K, 100 kPa, x2 = 0.333) was 372 mPa·s, the viscosity (328.15 K, 100 kPa, x2 = 0.333) was 73.2 mPa·s and the viscosity (358.15 K, 100 kPa, x2 = 0.333) was 22.2 mPa·s.

`O` + CCCC[n+]1ccn(C)c1.F[B-](F)(F)F showed an electrical conductivity (288.15 K, 100 kPa, x1 = 1) of 0.0217 S/m and an electrical conductivity (318.15 K, 100 kPa, x1 = 1) of 0.0402 S/m.

`CCCC[n+]1ccn(C)c1.F[P-](F)(F)(F)(F)F` + CCCC[n+]1ccn(C)c1.O=S(=O)([N-]S(=O)(=O)C(F)(F)F)C(F)(F)F showed a viscosity (313.15 K, 100 kPa, x1 = 0.25) of 36.48 mPa·s and a viscosity (313.15 K, 100 kPa, x1 = 0.75) of 73.2 mPa·s.

With `CCCCn1cc[n+](C)c1.O=S(=O)([N-]S(=O)(=O)C(F)(F)F)c1ccc[cH-]1.[Fe+2].c1cc[cH-]c1` + CCCC[n+]1ccn(C)c1.O=S(=O)([N-]S(=O)(=O)C(F)(F)F)C(F)(F)F the viscosity (298.15 K, 100 kPa, x2 = 0.461) was 1226.1 mPa·s, the viscosity (298.15 K, 100 kPa, x2 = 0.56) was 542.8 mPa·s and the viscosity (298.15 K, 100 kPa, x2 = 0.661) was 295.4 mPa·s. The viscosity (298.15 K, 100 kPa, x2 = 0.839) was 108.5 mPa·s and the viscosity (298.15 K, 100 kPa, x2 = 0.92) was 73.3 mPa·s.

In the case of `ClCCl` + CCCC[n+]1ccn(C)c1.O=S(=O)([N-]S(=O)(=O)C(F)(F)F)C(F)(F)F, the electrical conductivity (296.35 K, 100 kPa, x2 = 0.0271) is reported as 0.64 S/m, the electrical conductivity (296.35 K, 100 kPa, x2 = 0.039) is reported as 0.79 S/m and the electrical conductivity (296.35 K, 100 kPa, x2 = 0.0623) is reported as 1.1 S/m. The electrical conductivity (296.35 K, 100 kPa, x2 = 0.1129) was 1.32 S/m and the electrical conductivity (296.35 K, 100 kPa, x2 = 0.2144) was 1.58 S/m.

With `Oc1cccnc1` + CCCC[n+]1ccn(C)c1.[Cl-] the viscosity (293.15 K, 100 kPa, x1 = 0.5) was 153.7 mPa·s.

Compound `O=c1cc[nH]cc1` + CCCC[n+]1ccn(C)c1.[Cl-] has a viscosity (293.15 K, 100 kPa, x1 = 0.333) of 302 mPa·s and a viscosity (293.15 K, 100 kPa, x1 = 0.5) of 261 mPa·s.

`[Cl][Al]([Cl])[Cl]` + CCCC[n+]1ccn(C)c1.[Cl-] gave an electrical conductivity (306.15 K, 101 kPa, x2 = 0.5) of 1.29 S/m, an electrical conductivity (306.15 K, 101 kPa, x2 = 0.556) of 0.603 S/m and an electrical conductivity (306.15 K, 101 kPa, x2 = 0.588) of 0.373 S/m.

`CCCC[n+]1ccn(C)c1.O=S(=O)([N-]S(=O)(=O)C(F)(F)F)C(F)(F)F` + CCCCn1cc[n+](C)c1.O=S(=O)([N-]S(=O)(=O)C(F)(F)F)c1ccc[cH-]1.[Fe+2].c1cc[cH-]c1 gave a viscosity (298.15 K, 100 kPa, x1 = 1) of 43.8 mPa·s.

In the case of `C=CC[n+]1ccn(C)c1.O=S(=O)([N-]S(=O)(=O)C(F)(F)F)C(F)(F)F` + CCCO, the viscosity (298.15 K, 100 kPa, x1 = 0.1) is reported as 3.31 mPa·s, the viscosity (298.15 K, 100 kPa, x1 = 0.3) is reported as 6.61 mPa·s and the viscosity (298.15 K, 100 kPa, x1 = 0.4) is reported as 8.51 mPa·s. For the same compound, the viscosity (298.15 K, 100 kPa, x1 = 0.6) was 13.42 mPa·s and the viscosity (298.15 K, 100 kPa, x1 = 1) was 34.3 mPa·s.

For `CCCCCCCC/C=C\CCCCCCCC(=O)O` + CC[N+](CC)(CC)CC.[Cl-], the viscosity (298 K, 100 kPa, x2 = 0.25) was 202.2 mPa·s, the viscosity (303.2 K, 100 kPa, x2 = 0.25) was 156.7 mPa·s and the viscosity (333.2 K, 100 kPa, x2 = 0.25) was 41.7 mPa·s.

Work on `[Cl][Al]([Cl])[Cl]` + CC[n+]1ccn(C)c1.[Cl-] yielded a speed of sound (298.15 K, 100 kPa, x2 = 0.38) of 1411 m/s, a speed of sound (303.15 K, 100 kPa, x2 = 0.38) of 1404.5 m/s and an electrical conductivity (303.15 K, 101 kPa, x1 = 0.5) of 2.49 S/m. For the same compound, the electrical conductivity (303.15 K, 101 kPa, x1 = 0.57) was 2.12 S/m, the electrical conductivity (303.15 K, 101 kPa, x1 = 0.6) was 1.91 S/m and the electrical conductivity (303.15 K, 101 kPa, x1 = 0.67) was 1.63 S/m. The electrical conductivity (306.15 K, 101 kPa, x2 = 0.5) was 2.66 S/m, the electrical conductivity (306.15 K, 101 kPa, x2 = 0.588) was 0.982 S/m and the electrical conductivity (306.15 K, 101 kPa, x2 = 0.625) was 0.663 S/m. The speed of sound (313.15 K, 100 kPa, x2 = 0.38) was 1391.8 m/s and the speed of sound (318.15 K, 100 kPa, x2 = 0.38) was 1385.6 m/s.

In the case of `O=C(O)CC(=O)O` + CC[n+]1ccn(C)c1.[Cl-], the viscosity (313.15 K, 101.3 kPa, x2 = 0.667) is reported as 80.8 mPa·s, the viscosity (323.15 K, 101.3 kPa, x2 = 0.667) is reported as 49.2 mPa·s and the viscosity (333.15 K, 101.3 kPa, x2 = 0.667) is reported as 33.5 mPa·s. The viscosity (343.15 K, 101.3 kPa, x2 = 0.667) was 23.06 mPa·s and the viscosity (353.15 K, 101.3 kPa, x2 = 0.667) was 17.84 mPa·s.

Compound `O=C[C@H](O)[C@@H](O)[C@H](O)[C@H](O)CO` + CC[n+]1ccn(C)c1.[Cl-] has a viscosity (373 K, 100 kPa, x1 = 0.0082) of 47 mPa·s, a viscosity (373 K, 100 kPa, x1 = 0.0829) of 82 mPa·s and a viscosity (373 K, 100 kPa, x1 = 0.1256) of 96 mPa·s.

For `c1c[nH]cn1` + CC[n+]1ccn(C)c1.[Cl-], the viscosity (298.2 K, 100 kPa, x2 = 0.333) was 47.5 mPa·s and the viscosity (298.2 K, 100 kPa, x2 = 0.667) was 198 mPa·s.

`CCOS(=O)(=O)[O-].CC[n+]1ccn(C)c1` + CN1CCCC1=O gave a viscosity (288.15 K, 100 kPa, x1 = 1) of 155.5 mPa·s, a viscosity (293.15 K, 100 kPa, x1 = 0.8821) of 80.25 mPa·s and a viscosity (298.15 K, 100 kPa, x1 = 0.596) of 27.95 mPa·s. For the same compound, the viscosity (318.15 K, 100 kPa, x1 = 0.3021) was 5.615 mPa·s.

Compound `CCCC[n+]1ccn(C)c1.F[B-](F)(F)F` + CO has an electrical conductivity (298.1 K, 101 kPa, x1 = 0.0155) of 0.884 S/m and an electrical conductivity (298.1 K, 101 kPa, x1 = 0.0244) of 1.16 S/m.

Work on `CCCC[n+]1ccn(C)c1.O=S(=O)([N-]S(=O)(=O)C(F)(F)F)C(F)(F)F` + CO yielded a viscosity (298 K, 100 kPa, x1 = 0.1) of 1.693 mPa·s, a viscosity (298 K, 100 kPa, x1 = 0.3834) of 8.225 mPa·s and a viscosity (298 K, 100 kPa, x1 = 0.4974) of 12.54 mPa·s. For the same compound, the viscosity (298 K, 100 kPa, x1 = 0.5875) was 16.78 mPa·s, the viscosity (298 K, 100 kPa, x1 = 0.7988) was 30.69 mPa·s and the viscosity (298 K, 100 kPa, x1 = 0.8995) was 38.93 mPa·s.

With `CC[NH3+].O=[N+]([O-])[O-]` + CO the viscosity (293.15 K, 101 kPa, x2 = 0) was 44.9 mPa·s and the viscosity (293.15 K, 101 kPa, x2 = 0.4) was 13.8 mPa·s.
